The supplement of paper PMC10307832

Experiments:
Assay in all cases: relative viability (nuclei count vs DMSO), 5 days (fraction); higher = more cells survive
201T = system: 201T
Procedure, shortened: (§1)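 Cells from lung cancer lines were seeded into 1536-well plates and, one day later, dosed by pin tool. Treatments were either a single drug or a fixed dose of an anchor drug with five library-drug doses (not always all listed) in √10 steps. After 5 days, nuclei were stained in a one-step fixation (final 0.05% Triton X-100, 1% formaldehyde, 1 ug/ml Hoechst) and counted on 4× images, and relative viability is the treated-to-vehicle nuclei ratio, as the median of duplicate plates.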

BEN = system: BEN
Procedure, shortened: as §1

EPLC-272H = system: EPLC-272H
Procedure, shortened: as §1

HCC-15 = system: HCC-15
Procedure, shortened: as §1

HCC-78 = system: HCC-78
Procedure, shortened: as §1

LCLC-97TM1 = system: LCLC-97TM1
Procedure, shortened: as §1

LU99A = system: LU99A
Procedure, shortened: as §1

NCI-H1355 = system: NCI-H1355
Procedure, shortened: as §1

NCI-H1395 = system: NCI-H1395
Procedure, shortened: as §1

NCI-H2009 = system: NCI-H2009
Procedure, shortened: as §1

NCI-H2085 = system: NCI-H2085
Procedure, shortened: as §1

NCI-H2126 = system: NCI-H2126
Procedure, shortened: as §1

NCI-H2228 = system: NCI-H2228
Procedure, shortened: as §1

NCI-H23 = system: NCI-H23
Procedure, shortened: as §1

NCI-H2405 = system: NCI-H2405
Procedure, shortened: as §1

NCI-H322M = system: NCI-H322M
Procedure, shortened: as §1

NCI-H460 = system: NCI-H460
Procedure, shortened: as §1

NCI-H647 = system: NCI-H647
Procedure, shortened: as §1

NCI-H650 = system: NCI-H650
Procedure, shortened: as §1

NCI-H661 = system: NCI-H661
Procedure, shortened: as §1

NCI-H838 = system: NCI-H838
Procedure, shortened: as §1

PC-14 = system: PC-14
Procedure, shortened: as §1

Question: Which results are given for `Cc1csc(=NC2CCCCC2)n1/N=C/c1ccc(O)c(O)c1O` [MIM1] + CS(=O)(=O)CCNCc1ccc(-c2ccc3ncnc(Nc4ccc(OCc5cccc(F)c5)c(Cl)c4)c3c2)o1 [Lapatinib] (partner 2 µM)?
Answer: relative viability (201T; first compound 0.2 µM): 1.08; relative viability (201T; first compound 0.6325 µM): 1.05; relative viability (201T; first compound 2 µM): 1.01; relative viability (201T; first compound 6.325 µM): 0.49; relative viability (201T; first compound 20 µM): 0.617; relative viability (BEN; first compound 0.2 µM): 0.732; relative viability (BEN; first compound 0.6325 µM): 0.674; relative viability (BEN; first compound 2 µM): 0.843; relative viability (BEN; first compound 6.325 µM): 0.622; relative viability (BEN; first compound 20 µM): 0.193; relative viability (EPLC-272H; first compound 0.2 µM): 0.884; relative viability (EPLC-272H; first compound 0.6325 µM): 0.886; relative viability (EPLC-272H; first compound 2 µM): 0.722; relative viability (EPLC-272H; first compound 6.325 µM): 0.792; relative viability (EPLC-272H; first compound 20 µM): 0.528; relative viability (HCC-15; first compound 0.2 µM): 0.844; relative viability (HCC-15; first compound 0.6325 µM): 0.554; relative viability (HCC-15; first compound 2 µM): 0.98; relative viability (HCC-15; first compound 6.325 µM): 0.415; relative viability (HCC-15; first compound 20 µM): 0.102; relative viability (HCC-78; first compound 0.2 µM): 0.834; relative viability (HCC-78; first compound 0.6325 µM): 0.964; relative viability (HCC-78; first compound 2 µM): 0.637; relative viability (HCC-78; first compound 6.325 µM): 0.492; relative viability (HCC-78; first compound 20 µM): 0.336; relative viability (LCLC-97TM1; first compound 0.2 µM): 1.04; relative viability (LCLC-97TM1; first compound 0.6325 µM): 0.526; relative viability (LCLC-97TM1; first compound 2 µM): 0.539; relative viability (LCLC-97TM1; first compound 6.325 µM): 0.353; relative viability (LCLC-97TM1; first compound 20 µM): 0.128; relative viability (LU99A; first compound 0.2 µM): 1.08; relative viability (LU99A; first compound 0.6325 µM): 0.894; relative viability (LU99A; first compound 2 µM): 0.779; relative viability (LU99A; first compound 6.325 µM): 0.915; relative viability (LU99A; first compound 20 µM): 0.282; relative viability (NCI-H1355; first compound 0.2 µM): 0.988; relative viability (NCI-H1355; first compound 0.6325 µM): 0.902; relative viability (NCI-H1355; first compound 2 µM): 0.967; relative viability (NCI-H1355; first compound 6.325 µM): 0.738; relative viability (NCI-H1355; first compound 20 µM): 0.483; relative viability (NCI-H1395; first compound 0.2 µM): 1.14; relative viability (NCI-H1395; first compound 0.6325 µM): 1.1; relative viability (NCI-H1395; first compound 2 µM): 0.862; relative viability (NCI-H1395; first compound 6.325 µM): 0.711; relative viability (NCI-H1395; first compound 20 µM): 0.515; relative viability (NCI-H2009; first compound 0.2 µM): 1.04; relative viability (NCI-H2009; first compound 0.6325 µM): 0.876; relative viability (NCI-H2009; first compound 2 µM): 1.1; relative viability (NCI-H2009; first compound 6.325 µM): 0.449; relative viability (NCI-H2009; first compound 20 µM): 0.133; relative viability (NCI-H2085; first compound 0.2 µM): 0.799; relative viability (NCI-H2085; first compound 0.6325 µM): 0.796; relative viability (NCI-H2085; first compound 2 µM): 0.772; relative viability (NCI-H2085; first compound 6.325 µM): 0.652; relative viability (NCI-H2085; first compound 20 µM): 0.537; relative viability (NCI-H2126; first compound 0.2 µM): 0.763; relative viability (NCI-H2126; first compound 0.6325 µM): 0.72; relative viability (NCI-H2126; first compound 2 µM): 0.77; relative viability (NCI-H2126; first compound 6.325 µM): 0.679; relative viability (NCI-H2126; first compound 20 µM): 0.339; relative viability (NCI-H2228; first compound 0.2 µM): 1.25; relative viability (NCI-H2228; first compound 0.6325 µM): 0.735; relative viability (NCI-H2228; first compound 2 µM): 1.22; relative viability (NCI-H2228; first compound 6.325 µM): 0.346; relative viability (NCI-H2228; first compound 20 µM): 0.247; relative viability (NCI-H23; first compound 0.2 µM): 1.13; relative viability (NCI-H23; first compound 2 µM): 0.734; relative viability (NCI-H23; first compound 6.325 µM): 0.88; relative viability (NCI-H23; first compound 20 µM): 0.177; relative viability (NCI-H2405; first compound 0.2 µM): 1.13; relative viability (NCI-H2405; first compound 0.6325 µM): 1.09; relative viability (NCI-H2405; first compound 2 µM): 1.12; relative viability (NCI-H2405; first compound 6.325 µM): 0.854; relative viability (NCI-H2405; first compound 20 µM): 0.606; relative viability (NCI-H322M; first compound 0.2 µM): 0.653; relative viability (NCI-H322M; first compound 0.6325 µM): 0.531; relative viability (NCI-H322M; first compound 2 µM): 0.532; relative viability (NCI-H322M; first compound 6.325 µM): 0.577; relative viability (NCI-H322M; first compound 20 µM): 0.801; relative viability (NCI-H460; first compound 0.2 µM): 0.889; relative viability (NCI-H460; first compound 0.6325 µM): 1.01; relative viability (NCI-H460; first compound 2 µM): 0.351; relative viability (NCI-H460; first compound 6.325 µM): 0.256; relative viability (NCI-H460; first compound 20 µM): 0.0216; relative viability (NCI-H647; first compound 0.2 µM): 1.03; relative viability (NCI-H647; first compound 0.6325 µM): 1.04; relative viability (NCI-H647; first compound 2 µM): 1.02; relative viability (NCI-H647; first compound 6.325 µM): 0.633; relative viability (NCI-H647; first compound 20 µM): 0.104; relative viability (NCI-H650; first compound 0.2 µM): 0.976; relative viability (NCI-H650; first compound 0.6325 µM): 0.737; relative viability (NCI-H650; first compound 2 µM): 0.897; relative viability (NCI-H650; first compound 6.325 µM): 0.791; relative viability (NCI-H650; first compound 20 µM): 0.235; relative viability (NCI-H661; first compound 0.2 µM): 0.582; relative viability (NCI-H661; first compound 0.6325 µM): 0.625; relative viability (NCI-H661; first compound 2 µM): 0.548; relative viability (NCI-H661; first compound 6.325 µM): 0.498; relative viability (NCI-H661; first compound 20 µM): 0.29; relative viability (NCI-H838; first compound 0.2 µM): 0.941; relative viability (NCI-H838; first compound 0.6325 µM): 0.885; relative viability (NCI-H838; first compound 2 µM): 0.815; relative viability (NCI-H838; first compound 6.325 µM): 0.672; relative viability (NCI-H838; first compound 20 µM): 0.183; relative viability (PC-14; first compound 0.2 µM): 0.305; relative viability (PC-14; first compound 0.6325 µM): 0.332; relative viability (PC-14; first compound 2 µM): 0.363; relative viability (PC-14; first compound 6.325 µM): 0.349; relative viability (PC-14; first compound 20 µM): 0.479
